Assay results published in patent publication US20200017495A1, “NOVEL HETEROCYCLIC COMPOUNDS AND THEIR USE IN PREVENTING OR TREATING BACTERIAL INFECTIONS” (priority 2017, published 2020).

Columns and labels:
Experiment in all cases: MIC of compounds alone and combined with antibacterials, broth microdilution (CLSI)
Type in all cases: cell-based
[1] = tested on: Enterobacter cloacae (ECL) isolates
How it was run: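 Log-phase isolates were inoculated at a final 5.10^5 CFU/mL in cation-adjusted Mueller-Hinton broth and incubated 16-20 h at 35° C in ambient air. MIC was the lowest concentration preventing visible growth; for combinations, the antibacterial MIC was read at each compound concentration.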

[2] = tested on: Salmonella typhimurium (STY) isolates; conditions: for MIC ATB in combination: STY S3371
How it was run: (§1)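 Visual read-out: MIC is the lowest concentration stopping growth, and in combinations the lowest antibacterial concentration doing so at each fixed compound level. Inoculum 5.10^5 CFU/mL log-phase cells in ca-MHB, 35° C, 16-20 h, ambient air.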

[3] = tested on: Providencia stuartii (PST) isolates
How it was run: as §1

C=CC1=C(C(=O)O)N2C(=O)[C@@H](NC(=O)/C(=N\OCC(=O)O)c3csc(N)n3)[C@H]2SC1 [FIX, Cefixime]
MIC ATB in combination ([1]; strain ECL UFR194, with CLA @ 4 μg/mL): 8 µg/mL | MIC ([1]; strain ECL UFR195, genotype TEM-1, CTX-M-15, OXA-1, OXA-48): >128 µg/mL | MIC ATB in combination ([1]; strain ECL UFR195, with AF2 @ 8 μg/mL): 8 µg/mL | MIC ATB in combination ([1]; strain ECL UFR195, with AF3 @ 8 μg/mL): 0.5 µg/mL | MIC ATB in combination ([1]; strain ECL UFR195, with CLA @ 4 μg/mL): >128 µg/mL | MIC ([1]; strain ECL UFR196, genotype TEM-1, CTX-M-15, OXA-1, OXA-48): >128 µg/mL | MIC ATB in combination ([1]; strain ECL UFR196, with AF2 @ 8 μg/mL): 8 µg/mL | MIC ATB in combination ([1]; strain ECL UFR196, with AF3 @ 8 μg/mL): 2 µg/mL | MIC ATB in combination ([1]; strain ECL UFR196, with CLA @ 4 μg/mL): >128 µg/mL | MIC ([1]; strain ECL UFR197, genotype TEM-1, CTX-M-15, OXA-1, OXA-48): >128 µg/mL | MIC ATB in combination ([1]; strain ECL UFR197, with AF2 @ 8 μg/mL): 32 µg/mL | MIC ATB in combination ([1]; strain ECL UFR197, with AF3 @ 8 μg/mL): 4 µg/mL | MIC ATB in combination ([1]; strain ECL UFR197, with CLA @ 4 μg/mL): 128 µg/mL | MIC ([1]; strain ECL UFR198, genotype TEM-1, SHV-12, CTX-M-15, DHA-1, OXA-1, OXA-48): >128 µg/mL | MIC ATB in combination ([1]; strain ECL UFR198, with AF2 @ 8 μg/mL): 128 µg/mL | MIC ATB in combination ([1]; strain ECL UFR198, with AF3 @ 8 μg/mL): 32 µg/mL | MIC ATB in combination ([1]; strain ECL UFR198, with CLA @ 4 μg/mL): >128 µg/mL | MIC ([1]; strain ECL UFR200, genotype TEM-1, SHV-12, KPC-2): >128 µg/mL | MIC ([1]; strain ECL UFR203, genotype TEM-1, SHV-12, VIM-1, antibiotic alone): >128 µg/mL | MIC ATB in combination ([1]; strain ECL UFR203, with AF2 @ 8 μg/mL): >128 µg/mL | MIC ATB in combination ([1]; strain ECL UFR203, with AF3 @ 8 μg/mL): >128 µg/mL | MIC ATB in combination ([1]; strain ECL UFR203, with CLA @ 4 μg/mL): >128 µg/mL | MIC ([1]; strain ECL UFR214, genotype TEM-1, SHV-31, CTX-M-15, VIM-4, antibiotic alone): >128 µg/mL | MIC ATB in combination ([1]; strain ECL UFR214, with AF2 @ 8 μg/mL): >128 µg/mL | MIC ATB in combination ([1]; strain ECL UFR214, with AF3 @ 8 μg/mL): >128 µg/mL | MIC ATB in combination ([1]; strain ECL UFR214, with CLA @ 4 μg/mL): >128 µg/mL | MIC ([1]; strain ECL UFR252PT, genotype VIM-2, antibiotic alone): >128 µg/mL | MIC ATB in combination ([1]; strain ECL UFR252PT, with AF2 @ 8 μg/mL): >128 µg/mL | MIC ATB in combination ([1]; strain ECL UFR252PT, with AF3 @ 8 μg/mL): >128 µg/mL | MIC ATB in combination ([1]; strain ECL UFR252PT, with CLA @ 4 μg/mL): >128 µg/mL | MIC ATB in combination ([2]; AF2 @ 8 μg/mL): <0.25 µg/mL | MIC ATB in combination ([2]; AF3 @ 8 μg/mL): <0.25 µg/mL | MIC ATB in combination ([2]; CLA @ 4 μg/mL): <=0.25 μg/mL | MIC ([2]; strain STY S3371, genotype OXA-1): <=0.25 μg/mL | MIC ATB in combination ([3]; PST UFR94, AF2 @ 8 μg/mL): <=0.25 μg/mL | MIC ATB in combination ([3]; PST UFR94, AF3 @ 8 μg/mL): <=0.25 μg/mL | MIC ATB in combination ([3]; PST UFR94, CLA @ 4 μg/mL): 2 µg/mL | MIC ATB in combination ([3]; PST UFR95, AF2 @ 8 μg/mL): <=0.25 μg/mL | MIC ATB in combination ([3]; PST UFR95, AF3 @ 8 μg/mL): <=0.25 μg/mL | MIC ATB in combination ([3]; PST UFR95, CLA @ 4 μg/mL): 8 µg/mL | MIC ATB in combination ([3]; PST UFR120, AF2 @ 8 μg/mL): <0.25 µg/mL | MIC ATB in combination ([3]; PST UFR120, AF3 @ 8 μg/mL): <0.25 µg/mL | MIC ATB in combination ([3]; PST UFR120, CLA @ 4 μg/mL): <=0.25 μg/mL | MIC ATB in combination ([3]; PST UFR121, AF2 @ 8 μg/mL): <0.25 µg/mL | MIC ATB in combination ([3]; PST UFR121, AF3 @ 8 μg/mL): <0.25 µg/mL | MIC ATB in combination ([3]; PST UFR121, CLA @ 4 μg/mL): <=0.25 μg/mL | MIC ATB in combination ([3]; PST UFR122, AF2 @ 8 μg/mL): <0.25 µg/mL | MIC ATB in combination ([3]; PST UFR122, AF3 @ 8 μg/mL): <0.25 µg/mL | MIC ATB in combination ([3]; PST UFR122, CLA @ 4 μg/mL): <=0.25 μg/mL | MIC ATB in combination ([3]; PST UFR123, AF2 @ 8 μg/mL): <0.25 µg/mL | MIC ATB in combination ([3]; PST UFR123, AF3 @ 8 μg/mL): <0.25 µg/mL | MIC ATB in combination ([3]; PST UFR123, CLA @ 4 μg/mL): <=0.25 μg/mL | MIC ATB in combination ([3]; PST UFR124, AF2 @ 8 μg/mL): <0.25 µg/mL | MIC ATB in combination ([3]; PST UFR124, AF3 @ 8 μg/mL): <0.25 µg/mL | MIC ATB in combination ([3]; PST UFR124, CLA @ 4 μg/mL): <=0.25 μg/mL | MIC ATB in combination ([3]; PST UFR125, AF2 @ 8 μg/mL): <0.25 µg/mL | MIC ATB in combination ([3]; PST UFR125, AF3 @ 8 μg/mL): <0.25 µg/mL | MIC ATB in combination ([3]; PST UFR125, CLA @ 4 μg/mL): <=0.25 μg/mL | MIC ATB in combination ([3]; PST UFR235, AF2 @ 8 μg/mL): <=0.25 μg/mL | MIC ATB in combination ([3]; PST UFR235, AF3 @ 8 μg/mL): <=0.25 μg/mL | MIC ATB in combination ([3]; PST UFR235, CLA @ 4 μg/mL): 8 µg/mL | MIC ([3]; strain PST UFR94, genotype CTX-M-14): 0.5 µg/mL | MIC ([3]; strain PST UFR95, genotype TEM-24): 4 µg/mL | MIC ([3]; strain PST UFR98, genotype TEM-1, CMY-6, OXA-1, NDM-1, RmtC): >128 µg/mL | MIC ATB in combination ([3]; strain PST UFR98, with AF2 @ 8 μg/mL): 64 µg/mL | MIC ATB in combination ([3]; strain PST UFR98, with AF3 @ 8 μg/mL): 32 µg/mL | MIC ATB in combination ([3]; strain PST UFR98, with CLA @ 4 μg/mL): >128 µg/mL | MIC ([3]; strain PST UFR235, compound alone): 512 µg/mL | MIC ([3]; strain PST UFR235, genotype VEB-1): 512 µg/mL
